Results from patent publication US8114862B2, “TGR5 modulators and methods of use thereof” (Intercept Pharmaceuticals, Inc., priority 2008, dated 2012).
Like-named read-outs stand apart in the source and are kept apart here. Marks after values point to notes of the source that are not given here.

Assays:
hFXR = biological target: T1, hFXR (Homo sapiens, UniProt Q96RI1); assay: FXR luciferase reporter assay in COS1 cells; type: cell-based
T1 construct: expressed in transfected cells; host or cells: COS1 cells

TGR5 [1] = biological target: T2, TGR5 (Homo sapiens, UniProt Q8TDU6); assay: CRE-driven luciferase reporter assay in TGR5-transfected CHO cells; type: cell-based; design: host or cells: CHO cells
T2 sequence (Q8TDU6 1-330): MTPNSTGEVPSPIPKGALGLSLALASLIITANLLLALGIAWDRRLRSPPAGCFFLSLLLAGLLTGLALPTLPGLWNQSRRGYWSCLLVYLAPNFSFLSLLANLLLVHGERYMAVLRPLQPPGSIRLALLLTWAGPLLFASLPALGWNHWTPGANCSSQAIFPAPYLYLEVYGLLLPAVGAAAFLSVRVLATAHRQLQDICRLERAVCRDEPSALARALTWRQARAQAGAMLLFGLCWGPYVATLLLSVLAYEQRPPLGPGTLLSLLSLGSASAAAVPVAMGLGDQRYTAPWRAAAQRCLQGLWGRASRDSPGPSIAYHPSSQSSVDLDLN

TGR5 [2] = biological target: T2, TGR5; assay: TGR5 receptor in vitro assay (Table 1); type: cell-based
human FXR = human FXR (Homo sapiens, UniProt Q96RI1); assay: FRET recruitment of SRC-1 peptide to human FXR, cell-free ELiSA
TGR5 [3] = biological target: T2, TGR5; assay: Direct comparison 6-ethyl vs 6-methyl 23-methyl cholic acid: TGR5; type: cell-based
FXR = biological target: T3, FXR (Homo sapiens, UniProt Q96RI1); assay: Direct comparison 6-ethyl vs 6-methyl 23-methyl cholic acid: FXR; type: biochemical
T3 sequence (Q96RI1 262-486 limits assumed): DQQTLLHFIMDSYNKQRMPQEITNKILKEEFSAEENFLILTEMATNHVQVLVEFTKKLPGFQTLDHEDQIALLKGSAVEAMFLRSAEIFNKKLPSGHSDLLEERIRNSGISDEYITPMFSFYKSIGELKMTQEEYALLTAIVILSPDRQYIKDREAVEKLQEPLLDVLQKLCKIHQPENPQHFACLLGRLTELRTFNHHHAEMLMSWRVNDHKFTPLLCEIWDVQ

[4] = Choleretic effect (bile flow) in bile fistula rat, id and iv infusion; type: in vivo; settings: 1 (μmol/min)/kg bw over 1 h
[5] = Biliary secretion and metabolism in bile fistula rat, id and iv infusion; settings: rat, in vivo, 1 μmol/kg/min
[6] = Previous study of OA tolerability in animals; type: in vivo
Procedure: Therefore, OA was administered at the dose of 50 mg/kg/d in this study.

in vitro = settings: human
bovine serum albumin = bovine serum albumin (Bos taurus, UniProt P02769); settings: values from literature; cited from earlier work
[7] = values from literature; cited from earlier work
[8] = values from literature; cited from earlier work; remark: listed apart in the source

Chain of bovine serum albumin (P02769 25-607): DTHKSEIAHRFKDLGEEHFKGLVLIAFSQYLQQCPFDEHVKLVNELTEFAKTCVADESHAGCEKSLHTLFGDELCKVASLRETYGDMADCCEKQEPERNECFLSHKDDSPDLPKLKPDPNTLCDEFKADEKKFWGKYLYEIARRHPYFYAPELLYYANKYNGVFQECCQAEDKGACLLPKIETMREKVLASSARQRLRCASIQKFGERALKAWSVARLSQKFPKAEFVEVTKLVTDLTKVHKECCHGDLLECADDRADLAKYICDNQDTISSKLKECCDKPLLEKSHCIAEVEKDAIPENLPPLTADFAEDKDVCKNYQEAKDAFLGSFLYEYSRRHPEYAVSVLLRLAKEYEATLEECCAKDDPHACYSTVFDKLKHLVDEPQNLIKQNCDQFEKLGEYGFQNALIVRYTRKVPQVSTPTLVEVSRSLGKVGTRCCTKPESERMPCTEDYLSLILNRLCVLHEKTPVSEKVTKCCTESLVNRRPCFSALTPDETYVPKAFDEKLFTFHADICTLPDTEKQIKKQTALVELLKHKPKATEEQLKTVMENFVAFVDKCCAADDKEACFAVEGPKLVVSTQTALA
T1 sequence (Q96RI1 whole entry): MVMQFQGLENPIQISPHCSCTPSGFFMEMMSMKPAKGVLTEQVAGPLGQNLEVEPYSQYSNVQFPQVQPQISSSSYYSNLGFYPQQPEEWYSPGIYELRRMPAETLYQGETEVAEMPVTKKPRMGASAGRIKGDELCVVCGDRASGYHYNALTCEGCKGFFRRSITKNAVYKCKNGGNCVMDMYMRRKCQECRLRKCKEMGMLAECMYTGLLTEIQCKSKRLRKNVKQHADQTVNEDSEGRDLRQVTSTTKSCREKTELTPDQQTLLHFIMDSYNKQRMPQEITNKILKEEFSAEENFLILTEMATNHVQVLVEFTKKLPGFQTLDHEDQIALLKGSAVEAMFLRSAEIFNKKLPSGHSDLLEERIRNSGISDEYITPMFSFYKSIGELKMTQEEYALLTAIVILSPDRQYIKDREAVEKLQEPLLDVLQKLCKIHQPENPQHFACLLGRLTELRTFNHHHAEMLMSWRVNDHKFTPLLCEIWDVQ
T1 sequence (P28700 whole entry partner): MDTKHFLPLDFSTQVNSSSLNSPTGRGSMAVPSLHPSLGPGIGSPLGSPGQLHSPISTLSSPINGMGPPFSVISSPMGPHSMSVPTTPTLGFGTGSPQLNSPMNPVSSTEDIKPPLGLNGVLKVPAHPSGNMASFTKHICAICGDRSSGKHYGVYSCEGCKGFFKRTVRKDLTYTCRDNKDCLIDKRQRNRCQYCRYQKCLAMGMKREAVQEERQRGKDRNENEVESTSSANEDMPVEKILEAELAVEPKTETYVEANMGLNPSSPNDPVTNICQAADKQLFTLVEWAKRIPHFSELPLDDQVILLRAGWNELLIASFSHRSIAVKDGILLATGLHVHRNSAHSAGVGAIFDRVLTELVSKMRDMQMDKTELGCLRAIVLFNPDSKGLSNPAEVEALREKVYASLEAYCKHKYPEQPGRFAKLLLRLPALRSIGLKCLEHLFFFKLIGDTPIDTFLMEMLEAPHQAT
Chain of human FXR (Q96RI1 whole entry): as the sequence (Q96RI1 whole entry) above

For `C[C@H]1[C@@H](O)C2C3CC[C@H]([C@H](C)C[C@H](C)C(=O)O)[C@@]3(C)[C@@H](O)CC2[C@@]2(C)CC[C@@H](O)C[C@@H]12` (stereo partly drawn), the “FXR Efficacy” value (hFXR; % of activity vs. 10 μM 6ECDCA) was 0.76%, the EC50 (hFXR; Table 3) was 22.8 µM and the “EC50 ratio (TGR5/FXR)” value (TGR5 [1]) was 0.035. The “TGR5 Efficacy” value (TGR5 [1]; % of activity vs. 10 μM LCA) was 75.6% and the EC50 (TGR5 [1]; Table 3) was 0.8 µM.
In the case of `C[C@H]1[C@@H](O)C2C3CC[C@H]([C@H](C)CCC(=O)O)[C@@]3(C)CCC2[C@@]2(C)CC[C@@H](O)C[C@@H]12` (stereo partly drawn) [Compound 6α-MeCDCA], the EC50 (TGR5 [2]) is reported as 0.37 µM, the “TGR5 Data Efficacy” value (TGR5 [2]) is reported as 119% and the EC50 (human FXR) is reported as 0.21 µM. The “FXR Data Efficacy” value (human FXR) was 148%.
With `C[C@H]1[C@@H](O)[C@@H]2[C@H](C[C@H](O)[C@]3(C)[C@@H]([C@H](C)C[C@H](C)C(=O)O)CC[C@@H]23)[C@@]2(C)CC[C@@H](O)C[C@@H]12` [Ih3, 23(S)-Methyl-6α-methyl-3α,7α,12α-trihydroxy-5β-cholan-24-oic acid] the EC50 (TGR5 [3]; first experiment, read-out: TGR5 I exp EC50) was 1.7 µM, the EC50 (TGR5 [3]; second experiment, read-out: TGR5 II exp EC50) was 3 µM and the EC50 (FXR; first experiment, read-out: FXR I exp EC50) was 10 µM. The EC50 (FXR; second experiment, read-out: FXR II exp EC50) was 7.8 µM.
For `CC[C@H]1[C@@H](O)[C@@H]2[C@H](C[C@H](O)[C@]3(C)[C@@H]([C@H](C)C[C@@H](C)C(=O)O)CC[C@@H]23)[C@@]2(C)CC[C@@H](O)C[C@@H]12` [Ii3e, 6α-ethyl-(23R)-methyl-3α,7α,12α trihydroxy-5β-cholan-24-oic acid], the “SV0: maximum bile secretion rate” value ([4]; id infusion) was 81 ± 8 (μL/min)/kg bw, the “SV0: maximum bile secretion rate” value ([4]; iv infusion) was “(90 ± 5) (μL/min)/kg bw” and the fraction unbound at 4 h [5] was 0.68 ± 0.08. It also gave a fraction unbound at 4 h ([5]; iv) of 0.65.
For `CC1(C)CC[C@]2(C(=O)O)CC[C@]3(C)C(=CC[C@@H]4[C@@]5(C)CC[C@H](O)C(C)(C)[C@@H]5CC[C@]43C)[C@@H]2C1` [OA, oleanolic acid], the toxicity ([6]; 100 mg/kg/day) was “some signs of toxicity” and the tolerability ([6]; lower dose) was “well tolerated”.
With `CN[C@@H]1C[C@H]2O[C@@](C)([C@@H]1OC)n1c3ccccc3c3c4c(c5c6ccccc6n2c5c31)C(=O)NC4` [Staurosporine] the EC50 at 4 h (in vitro) was 15 µM.
For `C[C@H](CCC(=O)NCCS(=O)(=O)O)[C@H]1CC[C@H]2[C@@H]3[C@H](O)C[C@@H]4C[C@H](O)CC[C@]4(C)[C@H]3CC[C@]12C` [TCDCA], the “Albumin Binding” value (bovine serum albumin) is given as 70* %, the “LogPA- (1-octanol-water partition coefficient, ionized species)” value [7] is given as 0.9* and the “CMC […] Na+” value [8] is given as 3.0* mM.
For `C[C@H](CCC(=O)NCCS(=O)(=O)O)[C@H]1CC[C@H]2[C@@H]3[C@@H](O)C[C@@H]4C[C@H](O)CC[C@]4(C)[C@H]3CC[C@]12C` [TUDCA], the “Albumin Binding” value (bovine serum albumin) is given as 67* %, the “LogPA- (1-octanol-water partition coefficient, ionized species)” value [7] is given as 1.1* and the “CMC […] Na+” value [8] is given as 2.2* mM.
Work on `CC/C(=C(\c1ccccc1)c1ccc(OCCN(C)C)cc1)c1ccccc1` [Tamoxifen] yielded an EC50 at 4 h (in vitro; HepG2 cells) of 47 µM.
